Measured values reported in patent US10414983B2, “Curved liquid crystal display” (SAMSUNG DISPLAY CO., LTD., priority 2017, dated 2019).

Assay: Adsorption force of the first compound
Type: physicochemical
Parameters: unit not given here
Settings: adsorption to pixel electrode; unit not given; larger absolute value = stronger adsorption
Text: Next, a physical characteristic of the first compound according to an example embodiment obtained as above-described and a comparative example are compared.
As described in Table 2, solubility and adsorption force of the first compound according to Examples 1 to 7 and the Comparative Example are described.
Referring to Table 2, in the case of the first compound according to an example embodiment, it is confirmed that the solubility is the same level as or higher than the comparative example. Also, it may be confirmed that an absolute value of the adsorption force of the first compound is the same level as or higher than the comparative example. Accordingly, the first compound may be easily absorbed to the pixel electrode, thereby it may be confirmed that the solubility is excellent when being injected to the liquid crystal material and the first compound is easily injected along with the liquid crystal material.

SMILES | Adsorption force
C=CC(=O)OCCOc1c(F)cc(-c2ccc(OCCOC(=O)CCOCc3cccnn3)cc2)cc1F [Example 6] | −0.51
C=C(C)C(=O)OCCCCCOc1c(F)cc(-c2ccc(OCCCCCCOC(=O)CCN(CCC)CCO)cc2)cc1F [Example 3] | −0.99
C=C(CCN(CCO)CCO)Oc1ccc(C(=O)c2ccc(OC(=O)C(=C)C)cc2)cc1 [Example 1] | −1.27
C=CC(=O)OCCOc1c(F)cc(-c2ccc(OCCOC(=O)CCOCc3ccon3)cc2)cc1F [Example 7] | −0.53
C=C(C)C(=O)OCCCc1cc(-c2ccccc2CC)cc(CCCOC(=O)C(=C)C)c1OCCCCCc1ccc(OCCCCCO)cc1 [Comparative Example, reference compound] | −0.49

Results, then the compound that gave them:

Adsorption force | SMILES
−1.34 | C=C(C)C(=O)OCCCCCOc1ccc(C(=O)c2ccc(OCCCCCCOC(=O)CCN(CCO)CCO)cc2)cc1 [Example 2]
−0.45 | C=CC(=O)OCCOc1c(F)cc(-c2ccc(OCCOC(=O)CCOCc3ccoc3)cc2)cc1F [Example 5]
−0.40 | C=CC(=O)OCCOc1c(F)cc(-c2ccc(OCCOC(=O)CCOC3CCOCC3)cc2)cc1F [Example 4]
